In PMC6934184, “Selective DNA-PKcs inhibition extends the therapeutic index of localized radiotherapy and chemotherapy” (The Journal of Clinical Investigation, 2019):

Target: T1, PRKCB2 (PKC beta II) (Homo sapiens, UniProt P05771)
T1 construct: purchased Thermo Fisher Scientific (Life Technologies) SelectScreen
Assay: SelectScreen Z'LYTE
Assay type: biochemical
In short: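 Percent values come from Thermo SelectScreen profiling of NU5455, combining activity and binding assays. CSF1R was run in Z'LYTE format at Km app ATP, and CAMK1 in Adapta format with ATP listed at 10.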

T1 sequence (P05771 1-673 isoform P05771-2): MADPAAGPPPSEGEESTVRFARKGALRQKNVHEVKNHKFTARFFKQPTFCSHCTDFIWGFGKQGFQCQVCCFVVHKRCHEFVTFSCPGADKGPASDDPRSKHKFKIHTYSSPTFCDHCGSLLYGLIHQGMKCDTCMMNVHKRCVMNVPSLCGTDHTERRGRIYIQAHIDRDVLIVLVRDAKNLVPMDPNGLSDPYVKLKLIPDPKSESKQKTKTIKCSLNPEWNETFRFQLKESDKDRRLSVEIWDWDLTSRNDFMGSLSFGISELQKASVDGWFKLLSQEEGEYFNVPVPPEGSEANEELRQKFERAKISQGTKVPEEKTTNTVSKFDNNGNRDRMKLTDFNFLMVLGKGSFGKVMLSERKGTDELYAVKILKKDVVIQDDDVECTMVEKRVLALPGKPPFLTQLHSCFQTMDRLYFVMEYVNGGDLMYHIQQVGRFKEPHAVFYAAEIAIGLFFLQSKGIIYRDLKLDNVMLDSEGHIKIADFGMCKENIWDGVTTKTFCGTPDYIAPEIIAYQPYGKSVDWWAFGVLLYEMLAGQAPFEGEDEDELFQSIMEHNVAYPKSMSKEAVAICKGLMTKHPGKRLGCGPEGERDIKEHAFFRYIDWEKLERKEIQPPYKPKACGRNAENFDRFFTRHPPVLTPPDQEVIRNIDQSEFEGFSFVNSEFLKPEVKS

## CN(C(=O)CN1CCOCC1)c1ccc2sc3c(-c4cccc5c(=O)cc(N6CC7CCC(C6)O7)oc45)cccc3c2c1 [NU5455]
  inhibition at 1 µM: -9.6%
